Reference: US5750700A, “Certain 1-substituted aminomethyl imidazole and pyrrole derivatives: novel dopamine receptor subtype specific ligands” (Neurogen Corporation, priority 1995, dated 1998)
Structures can show the parent of a compound that is named as a salt.

Experiments:
[1] = target: D2 and D3 receptor (rat striatal homogenates); assay: D2 and D3 receptor binding activity: displacement of 3H-raclopride in rat striatal homogenates; design: species or system adult male Sprague Dawley rats; conditions: 0.5 nM 3H-raclopride, nonspecific binding 10^-4M dopamine
Description: Assay for D2 and D3 Receptor Binding Activity Striatial tissue is dissected from adult male Sprague Dawley rats or BHK 293 cells are harvested containing recombinantly produced D2 or D3 receptors. The sample is homogenized in 100 volumes (w/vol) of 0.05M Tris HCl buffer at 4° C. and pH 7.4. The sample is then centrifuged at 30,000×g and resuspended and rehomogenized. The sample is then centrifuged as described and the final tissue sample is frozen until use. The tissue is resuspended 1:20 (wt/vol) in 0.05M Tris HCl buffer containing 100 mM NaCl. […] The binding characteristics of examples of this patent are shown in Table 1 for Rat Striatal Homogenates.

[2] = target: T1, human dopamine D4 receptor subtype (Homo sapiens, UniProt P21917); assay: D4 receptor binding activity: displacement of [3H] YM-09151-2; conditions: 0.1 nM [3H] YM-09151-2; 60 minutes at 25° C.; clonal cell lines expressing human D4
T1 construct: expressed in transfected cells
T1 sequence (P21917 1-419): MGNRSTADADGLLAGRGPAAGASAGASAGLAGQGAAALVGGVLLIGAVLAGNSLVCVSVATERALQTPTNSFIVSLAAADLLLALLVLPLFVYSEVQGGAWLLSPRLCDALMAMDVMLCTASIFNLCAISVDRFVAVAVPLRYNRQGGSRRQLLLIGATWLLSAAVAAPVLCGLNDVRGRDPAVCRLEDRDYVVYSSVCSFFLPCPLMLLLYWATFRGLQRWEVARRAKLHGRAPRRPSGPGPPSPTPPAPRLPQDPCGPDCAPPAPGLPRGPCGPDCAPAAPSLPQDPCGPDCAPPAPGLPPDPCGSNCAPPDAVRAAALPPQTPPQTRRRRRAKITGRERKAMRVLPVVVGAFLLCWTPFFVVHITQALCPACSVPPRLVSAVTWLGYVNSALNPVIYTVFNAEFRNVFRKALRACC
Description: Assay for D4 Receptor Binding Activity
Clonal cell lines expressing the human dopamine D4 receptor subtype were harvested in PBS and the cells centrifuged and the pellets stored at -80° C. until used in the binding assay. The pellets were resuspended and the cells lysed at 4° C. in 50 mM Tris pH 7.4 buffer containing 120 mM NaCl, 2 mM EDTA and 5 mM mMgCl2. The homogenate is centrifuged at 48000×g for 10 minutes at 4° C. The resulting pellet is resuspended in fresh buffer and centrifuged again. After resuspension of the pellet in fresh buffer at 100 ul aliquot removed for the protein determination. The remaining homogenate is centrifuged as above, the supernatant removed and the pellet stored at 4° C. until needed at which time it is resuspended to a final concentration of 625 ug/ml (250 ug per sample) with 50 mM Tris buffer (pH 7.4) and 120 mM NaCl just prior to use. Incubations were carried out for 60 minutes at 25° C. in the presence of 0.1 nM [^3 H] YM-09151-2. The incubation was terminated by rapid filtration through Whatman GF/C filters and rinsed with 2×4 ml washes of chilled 50 mM Tris (pH 7.4) and 120 mM NaCl. Nonspecific binding was determined with 1 uM spiperone and radioactivity determined by counting in an LKB beta counter. Binding parameters were determined by non-linear least squares regression analysis, from which the inhibition constant Ki could be calculated for each test compound. The binding characteristics of some examples of this patent are shown in Table 2 for the dopamine D4 binding assay. […] YM-09151-2 from the human dopamine D4 receptor subtype of below […].

IC50 [1] [nM] | Ki [2] [nM] | Compound
142 | 3 | c1ccc(CC2CCN(Cc3cn(-c4ccccc4)cn3)CC2)cc1 [Compound 1, 1-phenyl-4[(4-benzyl-piperidin-1-yl)-methyl]imidazole]
3 | 10 | c1ccc(C2CCN(Cc3cn(-c4ccccc4)cn3)CC2)cc1 [Compound 2, 1-Phenyl-4[(4-phenyl-piperidin-1-yl)methyl]imidazole dihydrochloride]
6 | 2 | c1ccc(N2CCN(Cc3cn(-c4ccccc4)cn3)CC2)cc1 [Compound 3, 1-Phenyl-4[(4-phenyl-piperazin-1-yl)methyl]imidazole dihydrochloride]
194 | 3 | Fc1ccc(N2CCN(Cc3cn(-c4ccccc4)cn3)CC2)cc1 [Compound 6, 1-Phenyl-4[(4-(4-fluorophenyl)-piperazin-1-yl)methyl]imidazole dihydrochloride]
